From patent US9351940B2, “Nanoparticles comprising esters of poly (methyl vinyl ether-co-maleic anhydride) and uses thereof” (priority 2011, dated 2016)
Values after ≈ are worked out from the molar mass of the structure shown.

Experiment: Water solubility of KTZ in aqueous suspension without polymer
Type: physicochemical
Details: kinetic from dmso stock, aqueous suspension after precipitation from alcoholic solution, no polymer
Procedure: The selection of the appropriate Ketoconazole:polymer ratio (w/w) which is needed to dissolve drug crystals and to obtain homogeneous nanoparticles free from drug crystals was firstly optimized. For that purpose, 200 mg of KTZ were resuspended in different volumes of both absolute ethanol (10, 15 and 20 mL) as control solution or in the same volumes of GANTREZ® ES 425 ethanolic solution (50 mg/mL). GANTREZ® ES nanoparticles were produced by the addition of the corresponding volume of bidistilled water (2:1 (v/v) water/polymer solution) to GANTREZ® ES alcoholic solutions containing KTZ. […] Finally, the aqueous suspensions of KTZ-loaded GANTREZ® ES nanoparticles and KTZ aqueous suspension without the polymer were collected for further characterization and drug content quantification.
The amount of encapsulated drug in the nanoparticles was assayed by UV spectrophotometry at 257 nm (Shimadzu 1203 UV-VIS). In order to quantify the amount of KTZ in the nanoparticles suspension or free KTZ suspension without the polymer GANTREZ® ES), all samples of fleshly prepared formulations were evaporated under reduced pressure to eliminate ethanol, and then 1 mL of triplicate samples were centrifuged at 20,000 rpm for 25 min. […]

Which solubility does the source give for CC(=O)N1CCN(c2ccc(OCC3COC(Cn4ccnc4)(c4ccc(Cl)cc4Cl)O3)cc2)CC1 (stereo not shown) [KTZ, Ketoconazole] here?
The solubility was ~11 µg/mL (≈ 20.7 µM).
